According to ChEMBL document CHEMBL1201862, “PubChem BioAssay data set” (2004):
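Exposure lasted 48 hours, with cells grown in 96-well plates and compounds tested at five concentrations. Abbreviation: GI50, concentration required for 50% inhibition of growth.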 Active and inactive are the calls of the source. Rule as the data show it: active = GI50 up to about 1.1 µM and inactive = higher.

Experiments:
Assay in all cases: DTP human tumour cell line panel, 48 h
A549 = tested on: A549
EKVX = tested on: EKVX
HCT-116 = tested on: HCT-116
HOP-18 = tested on: HOP-18
HOP-62 = tested on: HOP-62
KM-20L2 = tested on: KM-20L2
NCI-H23 = tested on: NCI-H23
SF-268 = tested on: SF-268
SK-OV-3 = tested on: SK-OV-3
SN12C = tested on: SN12C
SNB-78 = tested on: SNB-78
SW-620 = tested on: SW-620
TK-10 = tested on: TK-10
U-251 = tested on: U-251
HL-60 = tested on: HL-60
RPMI-8226 = tested on: RPMI-8226
SR = tested on: SR

Measured: GI50

COc1cc(OC)c2ssc3c(OC)cc(OC)c4ssc1c2-c43
inactive: A549 > 100 µM | EKVX > 100 µM | HCT-116 > 100 µM | HOP-18 > 100 µM | HOP-62 > 100 µM | KM-20L2 > 100 µM | NCI-H23 > 100 µM | SF-268 > 100 µM | SK-OV-3 > 100 µM | SN12C > 100 µM | SNB-78 > 100 µM | SW-620 > 100 µM | TK-10 > 100 µM | U-251 > 100 µM

CS/C(=N\c1ccc([N+](=O)[O-])cc1C#N)NC(=O)c1ccccc1
inactive: A549 > 100 µM | EKVX 94.8 µM | HCT-116 > 100 µM | HL-60 > 100 µM | HOP-18 75.7 µM | HOP-62 > 100 µM | KM-20L2 > 100 µM | NCI-H23 > 100 µM | RPMI-8226 > 100 µM | SF-268 > 100 µM | SN12C > 100 µM | SNB-78 > 100 µM | SR > 100 µM | SW-620 > 100 µM | TK-10 > 100 µM | U-251 > 100 µM

CCCCCCCCCCCCCCCCNc1cccc2ccccc12
inactive: A549 > 100 µM | EKVX > 100 µM | HCT-116 > 100 µM | HL-60 > 100 µM | HOP-62 > 100 µM | KM-20L2 > 100 µM | NCI-H23 > 100 µM | RPMI-8226 > 100 µM | SF-268 > 100 µM | SK-OV-3 > 100 µM | SN12C > 100 µM | SNB-78 > 100 µM | SR > 100 µM | SW-620 > 100 µM | TK-10 > 100 µM | U-251 > 100 µM

O=C1OC(c2ccccc2)=N/C1=C/NC(Cc1ccc(O)cc1)C(=O)O (stereo not drawn)
inactive: A549 > 100 µM | EKVX > 100 µM | HCT-116 > 100 µM | HL-60 > 100 µM | HOP-18 36.1 µM | HOP-62 > 100 µM | KM-20L2 > 100 µM | NCI-H23 > 100 µM | RPMI-8226 > 100 µM | SF-268 > 100 µM | SK-OV-3 > 100 µM | SNB-78 > 100 µM | SW-620 > 100 µM | TK-10 > 100 µM | U-251 > 100 µM

NNc1cnn(-c2ccccc2)c(=O)c1Cl
inactive: A549 > 100 µM | HCT-116 > 100 µM | HL-60 > 100 µM | HOP-18 > 100 µM | HOP-62 > 100 µM | KM-20L2 > 100 µM | NCI-H23 > 100 µM | RPMI-8226 > 100 µM | SF-268 > 100 µM | SK-OV-3 > 100 µM | SN12C > 100 µM | SNB-78 > 100 µM | SR > 100 µM | SW-620 > 100 µM | TK-10 > 100 µM | U-251 > 100 µM

C/C(CCn1[nH]c(=O)ccc1=O)=N\OCCCc1ccccc1
inactive: A549 > 100 µM | EKVX > 100 µM | HCT-116 > 100 µM | HL-60 > 100 µM | HOP-18 > 100 µM | HOP-62 > 100 µM | KM-20L2 > 100 µM | NCI-H23 > 100 µM | RPMI-8226 > 100 µM | SF-268 > 100 µM | SN12C > 100 µM | SNB-78 > 100 µM | SR > 100 µM | SW-620 > 100 µM | TK-10 > 100 µM

O=C(Nc1ccc(Cl)cc1Cl)C1C(=O)N(c2ccc(Cl)cc2Cl)C(=O)/C1=N\Nc1ccc([N+](=O)[O-])cc1[N+](=O)[O-] (stereo not drawn)
inactive: A549 > 100 µM | EKVX > 100 µM | HCT-116 26.9 µM | HL-60 35.2 µM | HOP-18 17.9 µM | HOP-62 45.8 µM | KM-20L2 26.4 µM | NCI-H23 23.9 µM | RPMI-8226 22.7 µM | SF-268 22.3 µM | SK-OV-3 > 100 µM | SN12C 74.6 µM | SNB-78 > 100 µM | SW-620 > 100 µM | TK-10 > 100 µM | U-251 48.8 µM

O=C(Nc1ccc(Cl)cc1Cl)C1C(=O)C(=O)N(c2ccc(Cl)cc2Cl)C1=O (stereo not drawn)
inactive: A549 > 100 µM | EKVX > 100 µM | HCT-116 99.1 µM | HL-60 > 100 µM | HOP-18 > 100 µM | HOP-62 > 100 µM | KM-20L2 > 100 µM | NCI-H23 > 100 µM | SF-268 > 100 µM | SK-OV-3 > 100 µM | SN12C > 100 µM | SNB-78 > 100 µM | SW-620 > 100 µM | TK-10 > 100 µM | U-251 > 100 µM

CC(=O)N/C(=C\c1ccc(/C=C(\NC(C)=O)c2nc3cc(Cl)ccc3[nH]2)cc1)c1nc2ccccc2[nH]1
inactive: A549 > 100 µM | EKVX > 100 µM | HCT-116 > 100 µM | HOP-62 > 100 µM | KM-20L2 > 100 µM | NCI-H23 > 100 µM | RPMI-8226 > 100 µM | SF-268 > 100 µM | SK-OV-3 > 100 µM | SN12C > 100 µM | SNB-78 > 100 µM | SR > 100 µM | SW-620 > 100 µM | TK-10 > 100 µM | U-251 > 100 µM

Clc1cccc(C2N3CCCCC3[C@@H]3c4[nH]c5ccccc5c4CCN23)c1 (stereo partly drawn)
inactive: A549 43.9 µM | EKVX 56 µM | HCT-116 17.1 µM | HL-60 18.7 µM | HOP-18 > 100 µM | HOP-62 46.9 µM | KM-20L2 56.8 µM | NCI-H23 22 µM | RPMI-8226 29 µM | SF-268 33.1 µM | SK-OV-3 46.9 µM | SN12C 13.6 µM | SW-620 44.4 µM | TK-10 40.8 µM | U-251 29.2 µM

O=C(CC1(O)C(=O)Nc2ccc([N+](=O)[O-])cc21)c1ccc2ccccc2c1 (stereo not drawn)
inactive: A549 > 100 µM | EKVX > 100 µM | HCT-116 > 100 µM | HL-60 > 100 µM | HOP-62 > 100 µM | KM-20L2 > 100 µM | NCI-H23 > 100 µM | RPMI-8226 > 100 µM | SF-268 > 100 µM | SK-OV-3 > 100 µM | SN12C > 100 µM | SNB-78 > 100 µM | SR > 100 µM | SW-620 > 100 µM | TK-10 > 100 µM | U-251 > 100 µM

O=C(O)C(Cc1ccccc1)N1C(=O)N/C(=C\c2ccc(F)cc2)C1=O (stereo not drawn)
inactive: A549 > 100 µM | EKVX > 100 µM | HCT-116 > 100 µM | HL-60 > 100 µM | HOP-18 > 100 µM | HOP-62 > 100 µM | NCI-H23 > 100 µM | RPMI-8226 > 100 µM | SK-OV-3 > 100 µM | SN12C > 100 µM | SNB-78 18.4 µM | SR > 100 µM | SW-620 > 100 µM | TK-10 > 100 µM | U-251 > 100 µM

CC1OC(=O)N2CCC=CC12 (stereo not drawn)
inactive: A549 > 100 µM | EKVX > 100 µM | HCT-116 > 100 µM | HOP-18 > 100 µM | KM-20L2 > 100 µM | NCI-H23 > 100 µM | RPMI-8226 > 100 µM | SF-268 > 100 µM | SK-OV-3 > 100 µM | SN12C > 100 µM | SNB-78 > 100 µM | SW-620 > 100 µM | TK-10 > 100 µM | U-251 > 100 µM
